According to patent publication US20220305012A1, “L[…] TREATING SLEEP ISSUES” (EISAI R&D MANAGEMENT CO., LTD., priority 2019, published 2022):

Assays:
Assay type in all cases: in vivo, human
[1] = system: Subjects Having Insomnia Disorder; assay: Example 2: subjective wake after sleep onset (sWASO), sleep diary; conditions: Zolpidem ER 6.25 mg
From the text: As used herein, the term “subjective wake after sleep onset”, abbreviated as “sWASO”, means the sum of estimated minutes of wake during the night after initial sleep onset until the time the subject stopped trying to sleep for the night, operationalized as the time the subject got out of bed for the day. In some embodiments, sWASO is derived from data entered in a subject's Sleep Diary. As used herein, an “improvement of sWASO” means a reduction in sWASO.
(§1) In some embodiments, sleep diaries were used to assess sleep parameters reported by subjects (i.e., subjective assessments) including subjective sleep onset latency (sSOL), subjective sleep efficiency (sSE), subjective WASO (sWASO), and subjective total sleep time (sTST). Subjects were instructed to complete the Sleep Diary developed based on the consensus Sleep Diary as described in Carney et al., “The consensus sleep diary: standardizing prospective sleep self-monitoring,” Sleep 2012; 35(2):287-302. In some embodiments, the Sleep Diary was used to assess the subject's global perception of quality of sleep on the previous night with the following question: “How would you rate the quality of your sleep last night?” Subjects rated the quality of their sleep on a scale from 1 to 9, with 1 being extremely poor and 9 being extremely good. In some embodiments, the Sleep Diary was used to assess subjective ratings of morning sleepiness with the following question: “How alert/sleepy do you feel this morning?” Subjects rated their sleepiness/alertness level on a Likert scale from 1 to 9, with 1 being extremely sleepy and 9 being extremely alert.
sWASO—subjective wake after sleep onset: sum of estimated minutes of wake during the night after initial sleep onset until the time the subject stopped trying to sleep for the night, operationalized as the time the subject got out of bed for the day.
(§2) The treatment period lasted for 31 days. Subjects were randomized in a double-blind manner and received placebo, a tablet containing 5 mg of lemborexant, a tablet containing 10 mg of lemborexant, or a tablet containing 6.25 mg of zolpidem ER.
(§3) Once home, the subject ingested study drug each night prior to bedtime and completed their sleep diary within 1 hour of waketime.

[2] = system: Subjects Having Insomnia Disorder; assay: Example 2: subjective total sleep time (sTST), sleep diary; conditions: Zolpidem ER 6.25 mg
From the text: As used herein, the term “subjective total sleep time”, abbreviated as “sTST”, means the derived minutes of sleep from sleep onset until the time the subject stopped trying to sleep for the night. In some embodiments, sTST is derived from data entered in a subject's Sleep Diary.
as §1
sTST—subjective total sleep time: derived minutes of sleep from sleep onset until the time the subject stopped trying to sleep for the night.
as §2, §3

[3] = system: Subjects Having Insomnia Disorder; assay: Example 2: treatment-emergent adverse events; conditions: Zolpidem ER 6.25 mg (N = 263)
Method: Between 14 and 18 days after completion of the treatment period, subjects returned to the clinic for the end of study visit. The T-BWSQ and eC-SSRS were administered and routine safety assessments were conducted.
A subject who prematurely discontinued taking study drug was to return to the clinic as soon as practicable after discontinuing study drug. If the subject discontinued due to an adverse event, the adverse event must have been followed to resolution or for 2 weeks, whichever came first. Additionally, subjects who discontinued early underwent a urine drug test.

[4] = system: Subjects Having Insomnia Disorder; assay: Example 2: wake after sleep onset (WASO), polysomnography; conditions: Zolpidem ER 6.25 mg
Method: In some embodiments, a sleep parameter is determined objectively using polysomnography. Polysomnography is the monitoring of multiple electrophysiological parameters during sleep and generally includes measurement of EEG activity, electro-oculographic activity and electromyographic activity, as well as other measurements.
WASO—wake after sleep onset: minutes of wake from the onset of persistent sleep until lights on.
as §2
Within 5 minutes of the subject's mean habitual bedtime, study drug was administered and an overnight polysomnogram recording was initiated. At completion of the recording the following morning (Day 2), postural stability and cognitive performance were assessed. On the Day 2 evening, subjects returned to the clinic and a blood sample was collected before administering study drug, and then study drug was administered within 5 minutes of the subject's mean habitual bedtime. Again, a polysomnogram recording was initiated. The next morning (Day 3), postural stability and cognitive performance were assessed. A blood sample was also collected.
On Day 29, subjects returned to the clinic. Study drug was administered within 5 minutes of the subject's mean habitual bedtime and a polysomnogram recording was conducted. On the following morning (Day 30), postural stability and cognitive performance were assessed. After 1.5 hours of waketime, subjects rated their morning sleepiness level.
On the evening of Day 30, subjects returned to the clinic. A pre-dose blood sample was collected and study drug was again administered within 5 minutes of the subject's mean habitual bedtime. A polysomnogram recording was initiated. The following morning (Day 31), postural stability and cognitive performance were assessed and a blood sample was obtained. The ISI, FSS, EQ-5D-3L and PGI-Insomnia were administered. Blood and urine samples were collected for routine safety assessment. An electrocardiogram was performed, and vital signs and weight were assessed. The eC-SSRS was then administered to the subject. At 1.5 hours after waketime, subjects rated their morning sleepiness level.
Another key secondary endpoint was to determine the change from baseline for mean wake after sleep onset on Days 29 and 30 after administration of 5 mg or 10 mg of lemborexant, compared to placebo.

Cc1ccc(-c2nc3ccc(C)cn3c2CC(=O)N(C)C)cc1 [Zolpidem ER, zolpidem, reference compound]
Subjective Wake After Sleep Onset, Change from Study Baseline, Mean (SD) ([1]; First 7 Nights of Treatment): −48.91 (51.761) | Subjective Wake After Sleep Onset, Mean (SD) ([1]; First 7 Nights of Treatment): 124.83 (75.279) | Subjective Wake After Sleep Onset, Model-adjusted change from baseline ([1]; First 7 Nights of Treatment): −48.09 | Subjective Wake After Sleep Onset, Change from Study Baseline, Mean (SD) ([1]; Last 7 Nights of Treatment): −63.52 (64.161) | Subjective Wake After Sleep Onset, Mean (SD) ([1]; Last 7 Nights of Treatment): 109.63 (72.583) | Subjective Wake After Sleep Onset, Model-adjusted change from baseline ([1]; Last 7 Nights of Treatment): −62.00 | Subjective Total Sleep Time, Change from Study Baseline, Mean (SD) ([2]; First 7 Nights of Treatment): 56.99 (62.880) | Subjective Total Sleep Time, Mean (SD) ([2]; First 7 Nights of Treatment): 325.64 (81.845) | Subjective Total Sleep Time, Model-adjusted change from baseline ([2]; First 7 Nights of Treatment): 57.71 | Subjective Total Sleep Time, Change from Study Baseline, Mean (SD) ([2]; Last 7 Nights of Treatment): 71.01 (76.574) | Subjective Total Sleep Time, Mean (SD) ([2]; Last 7 Nights of Treatment): 340.20 (83.582) | Subjective Total Sleep Time, Model-adjusted change from baseline ([2]; Last 7 Nights of Treatment): 71.04 | Congenital anomaly/birth defect [3]: 0 n (%) | Deaths [3]: 0 n (%) | Life threatening [3]: 0 n (%) | Other SAEs [3]: 4 (1.5) n (%) | Persistent or significant disability or incapacity [3]: 0 n (%) | Requires inpatient hospitalization or prolongation of existing hospitalization [3]: 4 (1.5) n (%) | Serious TEAEs [3]: 4 (1.5) n (%) | Severe TEAEs [3]: 8 (3.0) n (%) | TEAEs [3]: 93 (35.4) n (%) | TEAEs leading to study dose reduced [3]: 0 n (%) | TEAEs leading to study drug dose adjustment [3]: 8 (3.0) n (%) | TEAEs leading to study drug interrupted [3]: 2 (0.8) n (%) | TEAEs leading to study drug withdrawal [3]: 7 (2.7) n (%) | Treatment-related TEAEs [3]: 40 (15.2) n (%) | Wake After Sleep Onset, Change from Study Baseline, Mean (SD) ([4]; Days 1/2): −44.36 (38.074) | Wake After Sleep Onset, Change from Study Baseline, Median ([4]; Days 1/2): −44.13 | Wake After Sleep Onset, Mean (SD) ([4]; Days 1/2): 69.92 (33.517) | Wake After Sleep Onset, Median ([4]; Days 1/2): 62.00 | Wake After Sleep Onset, Change from Study Baseline, Mean (SD) ([4]; Days 29/30): −36.50 (43.406) | Wake After Sleep Onset, Change from Study Baseline, Median ([4]; Days 29/30): −34.63 | Wake After Sleep Onset, Mean (SD) ([4]; Days 29/30): 77.71 (39.932) | Wake After Sleep Onset, Median ([4]; Days 29/30): 71.00
